Data published in patent US12116358B2, “Substituted indoles and methods of use thereof” (EPIZYME, INC., priority 2018, dated 2024).

Legend:
[1] = system: multiple myeloma cell lines (t(4;14) and non-t(4;14)); experiment: 14 day LTP assay in multiple myeloma cells; format: cell-based, human; conditions: FIG. 1 scatter graph
KMS-34 cells = experiment: 14 day KMS-34 long term proliferation (LTP) assay; conditions: KMS-34, t(4;14) multiple myeloma cell line; 14-day assay; FIG. 2
Description: 14 Day KMS-34 Long Term Proliferation (LTP) Assay
Incubate plates for 96 hrs.
The final concentration is 1 μm.
To calculate growth for days 4, 7, 11, and 14:
1. Calculate the split factor for day 4 to 7, day 7 to 11, and day 11-14 The split factor is the viable cells/mL on Day X (either 4, 7, or 11) divided by the density the cells are being split back to.
2. For growth of cells from day 4 to 7, multiply the day 7 viable cells/mL density by the split factor from day 4.
4. For growth of cells from Day 11 to 14, multiply the Day 14 viable cells/mL density by the days 4, 7, and 11 split factors.
5. Plot growth on semi-log chart (viable cells/mL on Y axis, in log, and days on X axis).
From 5 mM to 0.25 μm. […] Mix well by pipetting up and down.

KMS-11 tumor = experiment: Anti-tumor activity in human myeloma KMS-11 tumor-bearing NOD SCID mice (subcutaneous xenograft); format: in vivo
Text: Evaluation of the Anti-Tumor Activity of Cpd. […] Based on the tumor volume and body weight, mice were assigned to respective groups such that the average starting tumor size and body weight was the same for each treatment group. […] The tumor cells were routinely subcultured before confluence, not to exceed 4-5 passages. The cells growing in an exponential growth phase were harvested and counted for tumor inoculation. […] The treatment was started when the mean tumor size reached 118 mm^3. Mice were then assigned to groups such that the mean tumor volume was the same for each treatment group and time point. […] Tumor Measurements The measurement of tumor size was conducted twice weekly with a caliper and the tumor volume (mm3) is estimated using the formula: TV=a×b×b/2, where “a” and “b” are long and short diameters of a tumor, respectively. The TVs are used for calculation of the tumor growth inhibition and tumor growth delay. […] The “[…]” and “TVinitial” are the mean tumor volumes on the final day and initial day of dosing. After take down 5 mice of G2 G5 post the final dosing, the remaining mice were maintained for monitoring tumor outgrowth twice weekly. […] Animals showing obvious signs of severe distress and/or pain were humanely sacrificed by carbon dioxide followed by cervical dislocation to ensure death. Samples Collection Tumor samples and plasma were collect at the indicated day. Data Acquisition and Statistical Analysis Data Acquisition: Protocol-required measurements and observations were recorded manually on appropriate forms, or directly on a computerized database. Statistical Analysis: All statistical tests were conducted, and the level of significance was set at 5% or P<0.05. The group means, standard deviation were calculated for all measurement parameters as study designed. Two-way RM ANOVA followed by Tukeys post hoc comparisons of the means. The therapeutic effects of compound as a single agent in the KMS-11 subcutaneous xenograft model were evaluated.

[2] = G2, 31.25 mg/kg, p.o., BID × 28 days, PG-Day 25

In the case of `CC(=O)N1CCN([C@H]2CCC[C@@H](NC(=O)c3cc4c(F)ccc(C)c4[nH]3)C2)CC1` [Cpd. No. 15, N-((1R,3S)-3-(4-acetylpiperazin-1-yl)cyclohexyl)-4-fluoro-7-methyl-1H-indole-2-carboxamide], the “anti-proliferative effects in t(4;14) and non-t(4;14) multiple myeloma cell lines” value [1] is reported as “selective anti-proliferative effects”, the “type of response of KMS-34 cells” value (KMS-34 cells) is reported as “cytotoxic response” and the “Tumor volume (Mean ± SEM)” value (KMS-11 tumor; G2, 31.25 mg/kg p.o. BID 28 days, PG-D1 (D 7)) is reported as 119 ± 6 mm3. For the same molecule, the “Tumor volume (Mean ± SEM)” value (KMS-11 tumor; G2, 31.25 mg/kg p.o. BID 28 days, PG-D4 (D 10)) was 225 ± 21 mm3, the “Tumor volume (Mean ± SEM)” value (KMS-11 tumor; G2, 31.25 mg/kg p.o. BID 28 days, PG-D7 (D 13)) was 271 ± 19 mm3 and the “Tumor volume (Mean ± SEM)” value (KMS-11 tumor; G2, 31.25 mg/kg p.o. BID 28 days, PG-D11 (D 17)) was 408 ± 46 mm3. For the same molecule, the “Tumor volume (Mean ± SEM)” value (KMS-11 tumor; G2, 31.25 mg/kg p.o. BID 28 days, PG-D14 (D 20)) was 478 ± 54 mm3, the “Tumor volume (Mean ± SEM)” value (KMS-11 tumor; G2, 31.25 mg/kg p.o. BID 28 days, PG-D18 (D 24)) was 609 ± 71 mm3 and the “Tumor volume (Mean ± SEM)” value (KMS-11 tumor; G2, 31.25 mg/kg p.o. BID 28 days, PG-D21 (D 27)) was 686 ± 80 mm3. For the same molecule, the “Tumor volume (Mean ± SEM)” value (KMS-11 tumor; G2, 31.25 mg/kg p.o. BID 28 days, PG-D25 (D 31)) was 763 ± 97 mm3, the “Tumor volume post the final dosing (Mean ± SEM)” value (KMS-11 tumor; G2, 31.25 mg/kg p.o. BID 28 days, PG-D28 (D 34)) was 882 ± 131 mm3 and the “Tumor volume post the final dosing (Mean ± SEM)” value (KMS-11 tumor; G2, 31.25 mg/kg p.o. BID 28 days, PG-D32 (D 38)) was 1123 ± 149 mm3. The “Tumor volume post the final dosing (Mean ± SEM)” value (KMS-11 tumor; G2, 31.25 mg/kg p.o. BID 28 days, PG-D35 (D 41)) was 1499 ± 196 mm3, the “Tumor volume post the final dosing (Mean ± SEM)” value (KMS-11 tumor; G2, 31.25 mg/kg p.o. BID 28 days, PG-D39 (D 45)) was 1747 ± 243 mm3 and the “Tumor Size at PG-Day 25 (Mean ± SEM)” value (KMS-11 tumor; G2, 31.25 mg/kg, p.o., BID × 28 days) was 763 ± 97 mm3. The TGI (KMS-11 tumor; [2]) was 74%, the ΔT/ΔC (KMS-11 tumor; [2]) was 26% and the “Tumor volume (Mean ± SEM)” value (KMS-11 tumor; G3, 62.5 mg/kg p.o. BID 28 days, PG-D1 (D 7)) was 117 ± 6 mm3. The “Tumor volume (Mean ± SEM)” value (KMS-11 tumor; G3, 62.5 mg/kg p.o. BID 28 days, PG-D4 (D 10)) was 178 ± 11 mm3, the “Tumor volume (Mean ± SEM)” value (KMS-11 tumor; G3, 62.5 mg/kg p.o. BID 28 days, PG-D7 (D 13)) was 216 ± 11 mm3 and the “Tumor volume (Mean ± SEM)” value (KMS-11 tumor; G3, 62.5 mg/kg p.o. BID 28 days, PG-D11 (D 17)) was 231 ± 16 mm3. For the same molecule, the “Tumor volume (Mean ± SEM)” value (KMS-11 tumor; G3, 62.5 mg/kg p.o. BID 28 days, PG-D14 (D 20)) was 184 ± 17 mm3, the “Tumor volume (Mean ± SEM)” value (KMS-11 tumor; G3, 62.5 mg/kg p.o. BID 28 days, PG-D18 (D 24)) was 176 ± 22 mm3 and the “Tumor volume (Mean ± SEM)” value (KMS-11 tumor; G3, 62.5 mg/kg p.o. BID 28 days, PG-D21 (D 27)) was 129 ± 25 mm3. For the same molecule, the “Tumor volume (Mean ± SEM)” value (KMS-11 tumor; G3, 62.5 mg/kg p.o. BID 28 days, PG-D25 (D 31)) was 115 ± 30 mm3, the “Tumor volume post the final dosing (Mean ± SEM)” value (KMS-11 tumor; G3, 62.5 mg/kg p.o. BID 28 days, PG-D28 (D 34)) was 117 ± 36 mm3 and the “Tumor volume post the final dosing (Mean ± SEM)” value (KMS-11 tumor; G3, 62.5 mg/kg p.o. BID 28 days, PG-D32 (D 38)) was 65 ± 23 mm3. The “Tumor volume post the final dosing (Mean ± SEM)” value (KMS-11 tumor; G3, 62.5 mg/kg p.o. BID 28 days, PG-D35 (D 41)) was 150 ± 60 mm3, the “Tumor volume post the final dosing (Mean ± SEM)” value (KMS-11 tumor; G3, 62.5 mg/kg p.o. BID 28 days, PG-D39 (D 45)) was 309 ± 108 mm3 and the “Tumor Size at PG-Day 25 (Mean ± SEM)” value (KMS-11 tumor; G3, 62.5 mg/kg, p.o., BID × 28 days) was 115 ± 30 mm3. The ΔT/ΔC (KMS-11 tumor; G3, 62.5 mg/kg, p.o., BID × 28 days, PG-Day 25) was 0%, the “Tumor volume (Mean ± SEM)” value (KMS-11 tumor; G4, 125 mg/kg p.o. BID 18 days then BID(3D− 4D+) 7 days, PG-D1 (D 7)) was 117 ± 6 mm3 and the “Tumor volume (Mean ± SEM)” value (KMS-11 tumor; G4, 125 mg/kg p.o. BID 18 days then BID(3D− 4D+) 7 days, PG-D4 (D 10)) was 191 ± 11 mm3. The “Tumor volume (Mean ± SEM)” value (KMS-11 tumor; G4, 125 mg/kg p.o. BID 18 days then BID(3D− 4D+) 7 days, PG-D7 (D 13)) was 219 ± 9 mm3, the “Tumor volume (Mean ± SEM)” value (KMS-11 tumor; G4, 125 mg/kg p.o. BID 18 days then BID(3D− 4D+) 7 days, PG-D11 (D 17)) was 196 ± 11 mm3 and the “Tumor volume (Mean ± SEM)” value (KMS-11 tumor; G4, 125 mg/kg p.o. BID 18 days then BID(3D− 4D+) 7 days, PG-D14 (D 20)) was 119 ± 10 mm3. The “Tumor volume (Mean ± SEM)” value (KMS-11 tumor; G4, 125 mg/kg p.o. BID 18 days then BID(3D− 4D+) 7 days, PG-D18 (D 24)) was 99 ± 16 mm3, the “Tumor volume (Mean ± SEM)” value (KMS-11 tumor; G4, 125 mg/kg p.o. BID 18 days then BID(3D− 4D+) 7 days, PG-D21 (D 27)) was 85 ± 20 mm3 and the “Tumor volume (Mean ± SEM)” value (KMS-11 tumor; G4, 125 mg/kg p.o. BID 18 days then BID(3D− 4D+) 7 days, PG-D25 (D 31)) was 131 ± 39 mm3. The “Tumor volume post the final dosing (Mean ± SEM)” value (KMS-11 tumor; G4, 125 mg/kg p.o. BID 18 days then BID(3D− 4D+) 7 days, PG-D28 (D 34)) was 99 ± 20 mm3, the “Tumor volume post the final dosing (Mean ± SEM)” value (KMS-11 tumor; G4, 125 mg/kg p.o. BID 18 days then BID(3D− 4D+) 7 days, PG-D32 (D 38)) was 239 ± 68 mm3 and the “Tumor volume post the final dosing (Mean ± SEM)” value (KMS-11 tumor; G4, 125 mg/kg p.o. BID 18 days then BID(3D− 4D+) 7 days, PG-D35 (D 41)) was 421 ± 108 mm3. The “Tumor volume post the final dosing (Mean ± SEM)” value (KMS-11 tumor; G4, 125 mg/kg p.o. BID 18 days then BID(3D− 4D+) 7 days, PG-D39 (D 45)) was 757 ± 215 mm3, the “Tumor Size at PG-Day 25 (Mean ± SEM)” value (KMS-11 tumor; G4, 125 mg/kg, p.o., BID × 18 days, BID(3D− 4D+) × 7 days) was 131 ± 39 mm3 and the ΔT/ΔC (KMS-11 tumor; G4, 125 mg/kg, p.o., BID × 18 days, BID(3D− 4D+) × 7 days, PG-Day 25) was 1%. The “Tumor volume (Mean ± SEM)” value (KMS-11 tumor; G5, 175 mg/kg p.o. BID 11 days then BID(3D− 4D+) 14 days, PG-D1 (D 7)) was 119 ± 6 mm3, the “Tumor volume (Mean ± SEM)” value (KMS-11 tumor; G5, 175 mg/kg p.o. BID 11 days then BID(3D− 4D+) 14 days, PG-D4 (D 10)) was 192 ± 13 mm3 and the “Tumor volume (Mean ± SEM)” value (KMS-11 tumor; G5, 175 mg/kg p.o. BID 11 days then BID(3D− 4D+) 14 days, PG-D7 (D 13)) was 221 ± 17 mm3. For the same molecule, the “Tumor volume (Mean ± SEM)” value (KMS-11 tumor; G5, 175 mg/kg p.o. BID 11 days then BID(3D− 4D+) 14 days, PG-D11 (D 17)) was 199 ± 24 mm3, the “Tumor volume (Mean ± SEM)” value (KMS-11 tumor; G5, 175 mg/kg p.o. BID 11 days then BID(3D− 4D+) 14 days, PG-D14 (D 20)) was 167 ± 27 mm3 and the “Tumor volume (Mean ± SEM)” value (KMS-11 tumor; G5, 175 mg/kg p.o. BID 11 days then BID(3D− 4D+) 14 days, PG-D18 (D 24)) was 189 ± 32 mm3. For the same molecule, the “Tumor volume (Mean ± SEM)” value (KMS-11 tumor; G5, 175 mg/kg p.o. BID 11 days then BID(3D− 4D+) 14 days, PG-D21 (D 27)) was 214 ± 45 mm3, the “Tumor volume (Mean ± SEM)” value (KMS-11 tumor; G5, 175 mg/kg p.o. BID 11 days then BID(3D− 4D+) 14 days, PG-D25 (D 31)) was 225 ± 45 mm3 and the “Tumor volume post the final dosing (Mean ± SEM)” value (KMS-11 tumor; G5, 175 mg/kg p.o. BID 11 days then BID(3D− 4D+) 14 days, PG-D28 (D 34)) was 269 ± 146 mm3. The “Tumor volume post the final dosing (Mean ± SEM)” value (KMS-11 tumor; G5, 175 mg/kg p.o. BID 11 days then BID(3D− 4D+) 14 days, PG-D32 (D 38)) was 589 ± 378 mm3, the “Tumor volume post the final dosing (Mean ± SEM)” value (KMS-11 tumor; G5, 175 mg/kg p.o. BID 11 days then BID(3D− 4D+) 14 days, PG-D35 (D 41)) was 732 ± 422 mm3 and the “Tumor volume post the final dosing (Mean ± SEM)” value (KMS-11 tumor; G5, 175 mg/kg p.o. BID 11 days then BID(3D− 4D+) 14 days, PG-D39 (D 45)) was 1183 ± 686 mm3. The “Tumor Size at PG-Day 25 (Mean ± SEM)” value (KMS-11 tumor; G5, 175 mg/kg, p.o., BID × 18 days, BID(3D− 4D+) × 14 days) was 225 ± 45 mm3 and the ΔT/ΔC (KMS-11 tumor; G5, 175 mg/kg, p.o., BID × 18 days, BID(3D− 4D+) × 14 days, PG-Day 25) was 4%.
